Paper PMC9317966, “Structure-function analysis of the AMPK activator SC4 and identification of a potent pan AMPK activator” (Biochemical Journal, 2022)

Columns and labels:
[1] = test system: AMPK β1-Ser108 exchanged for Ala; design: method as in PMID 24352254, PMID 29657085; settings: cited from earlier work
human GST-AMPK α1β1γ1 = molecular target: T1, human GST-AMPK α1β1γ1 (Homo sapiens, UniProt Q13131+Q9Y478); test: Radiolabel SAMS kinase assay, GST-AMPK from HEK293T/17 cells immobilised on glutathione-Sepharose; type: biochemical; settings: 1 µM compound
T1 construct: triply transfected with full-length AMPK α1 or α2 (NH2-terminal GST fusion, pDEST27 vector); full-length AMPK α1 or α2 (NH2-terminal GST fusion, pDEST27 vector), β1 or β2 (COOH-terminal FLAG fusion, pcDNA3.1 vector); FLAG (C); made in house; host or cells: HEK293T/17 cells, transient triple transfection
T1 sequence (Q13131 whole entry, the tested form may be a part): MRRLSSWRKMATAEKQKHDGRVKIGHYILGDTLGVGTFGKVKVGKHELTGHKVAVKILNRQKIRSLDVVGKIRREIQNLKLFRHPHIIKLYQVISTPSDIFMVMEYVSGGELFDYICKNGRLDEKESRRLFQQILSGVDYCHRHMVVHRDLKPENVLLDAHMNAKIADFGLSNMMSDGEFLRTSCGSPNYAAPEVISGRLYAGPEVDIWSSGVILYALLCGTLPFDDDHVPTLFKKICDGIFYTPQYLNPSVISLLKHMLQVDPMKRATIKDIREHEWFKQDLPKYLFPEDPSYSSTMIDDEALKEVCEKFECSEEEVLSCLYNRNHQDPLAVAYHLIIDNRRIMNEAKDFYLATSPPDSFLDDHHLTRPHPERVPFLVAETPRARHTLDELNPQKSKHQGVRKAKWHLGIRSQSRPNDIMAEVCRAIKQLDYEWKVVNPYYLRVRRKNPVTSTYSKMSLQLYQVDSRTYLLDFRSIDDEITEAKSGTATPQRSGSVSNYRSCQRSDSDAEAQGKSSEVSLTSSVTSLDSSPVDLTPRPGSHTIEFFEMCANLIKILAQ
T1 sequence (Q9Y478 whole entry, the tested form may be a part): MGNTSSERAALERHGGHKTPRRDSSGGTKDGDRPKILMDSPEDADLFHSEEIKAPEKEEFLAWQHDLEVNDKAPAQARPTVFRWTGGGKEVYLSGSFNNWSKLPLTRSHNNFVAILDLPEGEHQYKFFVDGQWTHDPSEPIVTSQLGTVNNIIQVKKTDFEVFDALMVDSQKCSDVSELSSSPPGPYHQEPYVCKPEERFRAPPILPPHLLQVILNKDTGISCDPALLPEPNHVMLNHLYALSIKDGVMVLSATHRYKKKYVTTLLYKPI
T1 sequence (P54619 whole entry partner, the tested form may be a part): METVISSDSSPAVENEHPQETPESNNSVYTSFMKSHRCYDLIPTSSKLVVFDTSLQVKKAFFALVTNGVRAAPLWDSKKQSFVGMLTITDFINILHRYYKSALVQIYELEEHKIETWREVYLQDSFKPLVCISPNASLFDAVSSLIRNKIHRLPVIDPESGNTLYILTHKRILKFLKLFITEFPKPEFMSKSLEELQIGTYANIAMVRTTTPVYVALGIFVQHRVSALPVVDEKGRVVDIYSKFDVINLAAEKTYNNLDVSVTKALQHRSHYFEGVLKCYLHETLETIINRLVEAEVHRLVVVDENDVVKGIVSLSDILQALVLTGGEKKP
Source text: (§1) We generated a series of compounds to investigate whether modification of the SC4 2-hydroxybiphenyl LHS fragment affects isoform selectivity, some of which (MSG008-MSG011) are presented in Table 1. We also synthesised compound MSG012 (example I-3-54 [32]), which was reported to activate α2β2γ1 with ∼100-fold greater potency compared with α1β1γ1. MSG012 differs from SC4 by substitution of the 2-hydroxyphenyl LHS fragment with 3-cyclohexen-4-yl-1-carboxylic acid, and 2-methylbenzoic acid RHS fragment with 1-hydroxy-N,N-dimethylcyclohexan-4-yl-1-carboxamide. Our initial screen involved measuring the activity of recombinant human GST-AMPK complexes expressed in HEK293T/17 cells and immobilised on glutathione-Sepharose (Supplementary Figure S1). Enzyme activity was measured by radiolabelling the synthetic SAMS peptide substrate in the absence or presence of 1 µM compound. Consistent with our previous characterisation, SC4 activated α1β1γ1, α2β1γ1 and α2β2γ1 >2.3-fold, and weakly activated α1β2γ1 1.3-fold (Figure 1A). […] The γ isoform had little influence on AMPK activation by MSG011 as most γ2 and γ3 complexes were activated >2.2-fold at 1 µM, with α1β2γ2 being the only exception (1.6-fold activation). […] Accordingly, MSG010, MSG011 and MSG012 can be classified as pan AMPK activators.
(§2) Adherent HEK293T/17 cells at ∼50% confluency were triply transfected with full-length AMPK α1 or α2 (NH2-terminal GST fusion, pDEST27 vector), β1 or β2 (COOH-terminal FLAG fusion, pcDNA3.1 vector), and γ1, γ2 or γ3 (NH2-terminal HA fusion, pMT2 vector) in the presence of FuGENE HD transfection reagent (Promega) as per the manufacturers protocol. Cells were harvested 48 hours post-transfection by first gently washing in ice cold phosphate buffered saline (PBS; Sigma–Aldrich), then scraping in ice cold lysis buffer (50 mM TRIS pH 7.5, 150 mM NaCl, 10% (v/v) glycerol, 50 mM NaF, 5 mM sodium pyrophosphate, 1% (v/v) Triton X-100, cOmplete protease inhibitor cocktail). Lysates were clarified by centrifugation (16 000g, 3 min, 4°C), flash frozen in liquid N2 and stored at −80°C until analysis. For radioactive kinase assays, AMPK was immobilised on glutathione Sepharose 4B resin (GE Healthcare) by incubation with lysates for 1.5 h at 4°C. Following centrifugation (1000g, 3 min, 4°C), the resin was washed twice in purification buffer (50 mM HEPES pH 7.4, 150 mM NaCl, 10% (v/v) glycerol, 0.02% (v/v) Tween-20), once in 50 mM HEPES pH 7.4 with 0.02% (v/v) Tween-20, then resuspended to a 50% slurry with 50 mM HEPES pH 7.4 and 10 µl added to the activity assays. For in solution kinase assays, α1β1γ1 AMPK was eluted from glutathione-Sepharose by incubating with purification buffer supplemented with 40 mM reduced glutathione (Sigma–Aldrich).
(§3) AMPK activity was determined by phosphorylation of the SAMS peptide (Purar Chemicals, sequence: NH2-HMRSAMSGLHLVKRR-COOH) in a 25 µl reaction volume containing 100 µM SAMS peptide, 5 mM MgCl2, 200 µM ATP, [γ-^32P]-ATP (PerkinElmer) and assay buffer (50 mM HEPES pH 7.4, 1 mM DTT and 0.02% (v/v) Tween-20) and purified AMPK. Phosphotransferase activity was conducted at 30°C for 10 min and reactions were quenched by spotting 15 µl onto phosphocellulose ion-exchange chromatography paper (made in-house), followed by repeated washes in 1% H3PO4 (Merck Millipore). Ultima Gold liquid scintillation fluid (5 ml; PerkinElmer) was added to vials containing dried phosphocellulose papers, and the level of ^32P-transfer to the SAMS peptide was determined using a Tri-Carb 2900TR liquid scintillation counter (PerkinElmer).

human GST-AMPK α1β2γ1 = molecular target: T2, human GST-AMPK α1β2γ1 (Homo sapiens, UniProt O43741+Q13131); test: as above; type: biochemical; settings: 1 µM compound
T2 construct: triply transfected with full-length AMPK α1 or α2 (NH2-terminal GST fusion, pDEST27 vector); full-length AMPK α1 or α2 (NH2-terminal GST fusion, pDEST27 vector), β1 or β2 (COOH-terminal FLAG fusion, pcDNA3.1 vector); FLAG (C); made in house; host or cells: HEK293T/17 cells, transient triple transfection
T2 sequence (Q13131 whole entry, the tested form may be a part): as the sequence (Q13131 whole entry, the tested form may be a part) above
T2 sequence (O43741 whole entry, the tested form may be a part): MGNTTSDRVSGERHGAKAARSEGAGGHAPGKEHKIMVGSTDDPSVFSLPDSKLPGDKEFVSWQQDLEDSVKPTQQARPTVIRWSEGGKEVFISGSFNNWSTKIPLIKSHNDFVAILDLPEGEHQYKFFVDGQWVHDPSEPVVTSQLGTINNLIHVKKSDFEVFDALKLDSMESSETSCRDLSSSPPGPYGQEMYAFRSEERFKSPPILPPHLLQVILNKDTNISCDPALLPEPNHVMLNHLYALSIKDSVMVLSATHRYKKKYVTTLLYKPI
T2 sequence (P54619 whole entry partner, the tested form may be a part): as the sequence (P54619 whole entry partner, the tested form may be a part) above
Source text: as §1, §2, §3

human GST-AMPK α2β1γ1 = molecular target: T3, human GST-AMPK α2β1γ1 (Homo sapiens, UniProt P54646+Q9Y478); test: as above; type: biochemical; settings: 1 µM compound
T3 construct: triply transfected with full-length AMPK α1 or α2 (NH2-terminal GST fusion, pDEST27 vector); full-length AMPK α1 or α2 (NH2-terminal GST fusion, pDEST27 vector), β1 or β2 (COOH-terminal FLAG fusion, pcDNA3.1 vector); FLAG (C); made in house; host or cells: HEK293T/17 cells, transient triple transfection
T3 sequence (P54646 whole entry, the tested form may be a part): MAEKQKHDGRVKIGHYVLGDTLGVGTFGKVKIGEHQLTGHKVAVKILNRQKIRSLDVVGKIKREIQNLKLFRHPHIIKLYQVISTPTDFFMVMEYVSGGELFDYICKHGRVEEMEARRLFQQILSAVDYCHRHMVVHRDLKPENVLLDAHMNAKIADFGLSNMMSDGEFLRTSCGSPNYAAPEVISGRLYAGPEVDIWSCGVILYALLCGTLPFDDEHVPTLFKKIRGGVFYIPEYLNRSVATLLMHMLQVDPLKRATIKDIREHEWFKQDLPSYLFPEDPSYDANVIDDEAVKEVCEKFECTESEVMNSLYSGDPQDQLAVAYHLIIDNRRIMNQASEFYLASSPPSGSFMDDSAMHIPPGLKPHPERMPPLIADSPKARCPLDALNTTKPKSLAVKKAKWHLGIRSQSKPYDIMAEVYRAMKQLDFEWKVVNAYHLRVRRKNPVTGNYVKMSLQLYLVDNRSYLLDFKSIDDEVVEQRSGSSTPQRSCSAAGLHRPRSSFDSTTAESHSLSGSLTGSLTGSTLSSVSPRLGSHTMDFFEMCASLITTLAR
T3 sequence (Q9Y478 whole entry, the tested form may be a part): as the sequence (Q9Y478 whole entry, the tested form may be a part) above
T3 sequence (P54619 whole entry partner, the tested form may be a part): as the sequence (P54619 whole entry partner, the tested form may be a part) above
Source text: as §1, §2, §3

human GST-AMPK α2β2γ1 = molecular target: T4, human GST-AMPK α2β2γ1 (Homo sapiens, UniProt O43741+P54646); test: as above; type: biochemical; settings: 1 µM compound
T4 construct: triply transfected with full-length AMPK α1 or α2 (NH2-terminal GST fusion, pDEST27 vector); full-length AMPK α1 or α2 (NH2-terminal GST fusion, pDEST27 vector), β1 or β2 (COOH-terminal FLAG fusion, pcDNA3.1 vector); FLAG (C); made in house; host or cells: HEK293T/17 cells, transient triple transfection
T4 sequence (P54646 whole entry, the tested form may be a part): as the sequence (P54646 whole entry, the tested form may be a part) above
T4 sequence (O43741 whole entry, the tested form may be a part): as the sequence (O43741 whole entry, the tested form may be a part) above
T4 sequence (P54619 whole entry partner, the tested form may be a part): as the sequence (P54619 whole entry partner, the tested form may be a part) above
Source text: as §1, §2, §3

α1β1γ1 AMPK = test system: α1β1γ1 AMPK; design: method as in PMID 29657085; settings: α1β1γ1, in solution, mammalian cell-expressed AMPK; cited from earlier work
α1β2γ1 AMPK = test system: α1β2γ1 AMPK; design: method as in PMID 29657085; settings: α1β2γ1, in solution, mammalian cell-expressed AMPK, cited from earlier work
α2β2γ1 AMPK = test system: α2β2γ1 AMPK; design: method as in PMID 29657085; settings: α2β2γ1, in solution, mammalian cell-expressed AMPK; cited from earlier work

| SMILES | reduction of activating potency on loss of β1-Ser108 phosphorylation via exchange for Ala [1] [fold] | fold AMPK activation relative to vehicle (human GST-AMPK α1β1γ1) [fold] | fold AMPK activation relative to vehicle (human GST-AMPK α1β2γ1) [fold] | fold AMPK activation relative to vehicle (human GST-AMPK α2β1γ1) [fold] | fold AMPK activation relative to vehicle (human GST-AMPK α2β2γ1) [fold] | EC50 (α1β1γ1 AMPK) [nM] | Max. fold activation (α1β1γ1 AMPK) [fold] | EC50 (α1β2γ1 AMPK; R2 for curve fit = 0.773) [nM] | Max. fold activation (α1β2γ1 AMPK) [fold] | EC50 (α2β2γ1 AMPK) [nM] | Max. fold activation (α2β2γ1 AMPK) [fold] |
| --- | --- | --- | --- | --- | --- | --- | --- | --- | --- | --- | --- |
| Cc1ccc(Oc2nc3cc(-c4ccc5c(ccn5C)c4)c(Cl)cc3[nH]2)cc1C(=O)O [compound 991] | 40 |  |  |  |  |  |  |  |  |  |  |
| Cc1ccc(Oc2nc3nc(-c4ccc(C5=CCC(C(=O)O)CC5)cc4)c(Cl)cc3[nH]2)cc1C(=O)O (centres unmarked) [MSG010, 4′-(2-(3-carboxy-4-methylphenoxy)-6-chloro-1H-imidazo[4,5-b]pyridin-5-yl)-2,3,4,5-tetrahydro-[1,1′-biphenyl]-4-carboxylic acid] |  | > 2.2 | > 2.2 | > 2.2 | > 2.2 |  |  |  |  |  |  |
| Cc1ccc(Oc2nc3nc(-c4ccc(-c5ccccc5O)cc4)c(Cl)cc3[nH]2)cc1C(=O)O [SC4] | ~4 | > 2.3 | 1.3 | > 2.3 | > 2.3 | 5.1 | 2.9 | 28.6 | 1.4 | 17.2 | 2.5 |
| COCCc1cccc(-c2nc3nc(Oc4ccc(C)c(C(=O)O)c4)[nH]c3cc2Cl)c1 [MSG008, 5-((6-Chloro-5-(3-(2-methoxyethyl)phenyl)-1H-imidazo[4,5-b]pyridin-2-yl)oxy)-2-methylbenzoic acid] |  | ≤ 1.3 | ≤ 1.3 | ≤ 1.3 | ≤ 1.3 |  |  |  |  |  |  |
